# System: AMPK
# Assay: AMPK activation assay (enzyme-linked immunosorbent assay)
# Assay type: cell-based
# Protocol: Compounds were assayed for their ability to activate AMPK using an enzyme-linked immunosorbent assay. Reagents and procedures for measuring AMPK activation are well known and kits for AMPK activation assays are commercially available.
row,Structure (SMILES),EC50
1,"N#Cc1ccc(CN2CCC(NC(=O)c3ccc(C(=O)N4CCC(Oc5ccc(S(=O)(=O)C(F)(F)F)cc5)CC4)cn3)CC2)cc1 [Compound 415, N-(1-(4-cyanobenzyl)piperidin-4-yl)-5-(4-(4-(trifluoromethylsulfonyl)phenoxy)piperidine-1-carbonyl)picolinamide]",< 500 nM
2,"O=C(Nc1ccc(Oc2ccc(F)cc2)nc1)c1ccc(C(=O)N2CCC(F)(C(=O)c3ccc(F)cc3)CC2)cn1 [Compound 67, 5-(4-(4-fluoro-4-fluorobenzoyl)piperidine-1-carbonyl)-N-(6-(4-fluorophenoxy)pyridin-3-yl)picolinamide]",< 500 nM
3,"CCS(=O)(=O)c1ccc(C(=O)C2CCN(C(=O)c3ccc(C(=O)NC4CCN(Cc5ccc(C#N)cc5)CC4)nc3)CC2)cc1 [Compound 260, N-(1-(4-cyanobenzyl)piperidin-4-yl)-5-(4-(4-(ethylsulfonyl)benzoyl)piperidine-1-carbonyl)picolinamide]",< 500 nM
4,"COc1ccc(C(=O)C2CCN(C(=O)c3ccc(C(=O)Nc4ccc(Oc5ccc(C#N)cc5)cn4)cn3)CC2)cc1 [Compound 468, N-(5-(4-cyanophenoxy)pyridin-2-yl)-6-(4-(4-methoxybenzoyl)piperidine-1-carbonyl)nicotinamide]",< 500 nM
5,"O=C(Nc1ccc(Oc2cccc(F)c2)cc1)c1ccc(C(=O)N2CCN(Cc3ccc(F)cc3)CC2)cn1 [Compound 55, 5-(4-(4-fluorobenzyl)piperazine-1-carbonyl)-N-(4-(3-fluorophenoxy)phenyl)picolinamide]",< 500 nM
6,"CC(=O)c1ccc(Oc2ccc(NC(=O)c3ccc(C(=O)N4CCC(Oc5ccc(S(C)(=O)=O)cc5)CC4)nc3)cn2)cc1 [Compound 485, N-(6-(4-acetylphenoxy)pyridin-3-yl)-6-(4-(4-(methylsulfonyl)phenoxy)piperidine-1-carbonyl)nicotinamide]",< 500 nM
7,"N#Cc1ccc(Oc2ccc(NC(=O)c3ccc(C(=O)N4CCC(Oc5ccc(S(F)(F)(F)(F)F)cc5)CC4)nc3)cn2)cc1 [Compound 497, N-(6-(4-cyanophenoxy)pyridin-3-yl)-6-(4-(4-(pentafluorosulfanyl)phenoxy)piperidine-1-carbonyl)nicotinamide]",< 500 nM
8,"N#Cc1ccc(OC2CCN(C(=O)c3ccc(C(=O)NC4CCN(c5ccc(F)cc5)CC4)cn3)CC2)cc1 [Compound 422, 6-(4-(4-cyanophenoxy)piperidine-1-carbonyl)-N-(1-(4-fluorophenyl)piperidin-4-yl)nicotinamide]",1000 to 5000 nM
9,"COc1ccc(C(=O)C2CCN(C(=O)c3ccc(C(=O)NC4CCC(Oc5ccc(C#N)cc5)CC4)cn3)CC2)cc1 (stereo not drawn) [Compound 315, N-((1s,4s)-4-(4-cyanophenoxy)cyclohexyl)-6-(4-(4-methoxybenzoyl)piperidine-1-carbonyl)nicotinamide]",< 500 nM
10,"O=C(Nc1ccc(Oc2ccc(F)cc2)nc1)c1ccc(C(=O)N2CCC(C(=O)c3ccc(N4CCOCC4)cc3)CC2)cn1 [Compound 379, N-(6-(4-fluorophenoxy)pyridin-3-yl)-5-(4-(4-morpholinobenzoyl)piperidine-1-carbonyl)picolinamide]",< 500 nM
11,"N#Cc1ccc(CN2CCC(NC(=O)c3ccc(C(=O)N4CCN(C5CCOCC5)CC4)cn3)CC2)cc1 [Compound 83, N-(1-(4-cyanobenzyl)piperidin-4-yl)-5-(4-(tetrahydro-2H-pyran-4-yl)piperazine-1-carbonyl)picolinamide]",> 10000 nM
12,"O=C(NC1CCN(Cc2ccccc2)CC1)c1ccc(C(=O)N2CCN(c3ccncc3)CC2)cn1 [Compound 96, N-(1-benzylpiperidin-4-yl)-5-(4-(pyridin-4-yl)piperazine-1-carbonyl)picolinamide]",> 10000 nM
13,"N#Cc1ccc(CN2CCC(NC(=O)c3ccc(C(=O)N4CC[C@H](Oc5ccc(F)cc5)C4)cn3)CC2)cc1 [Compound 270, (S)-N-(1-(4-cyanobenzyl)piperidin-4-yl)-5-(3-(4-fluorophenoxy)pyrrolidine-1-carbonyl)picolinamide]",< 500 nM
14,"CS(=O)(=O)c1ccc(C(=O)C2CCN(C(=O)c3ccc(C(=O)NC4CCN(Cc5ccc(C#N)cc5)CC4)nc3)CC2)cc1 [Compound 228, N-(1-(4-cyanobenzyl)piperidin-4-yl)-5-(4-(4-(methylsulfonyl)benzoyl)piperidine-1-carbonyl)picolinamide]",< 500 nM
15,"N#Cc1ccc(CN2CCC3(CC2)CCN(c2ccc(C(=O)N4CCN(Cc5ccc(F)cc5)CC4)cn2)C3)cc1 [Compound 31, 4-((2-(5-(4-(4-fluorobenzyl)piperazine-1-carbonyl)pyridin-2-yl)-2,8-diazaspiro[4.5]decan-8-yl)methyl)benzonitrile]",< 500 nM
16,"COc1ccc(C(=O)C2CCN(C(=O)c3ccc(C(=O)NC4CCN(Cc5ccc(NC(C)=O)cc5)CC4)cn3)CC2)cc1 [Compound 401, N-(1-(4-acetamidobenzyl)piperidin-4-yl)-6-(4-(4-methoxybenzoyl)piperidine-1-carbonyl)nicotinamide]",1000 to 5000 nM
17,"N#Cc1ccc(OC2CCN(C(=O)c3ccc(C(=O)NC4CCN(Cc5cc(F)cc(F)c5)CC4)nc3)CC2)cc1 [Compound 289, 5-(4-(4-cyanophenoxy)piperidine-1-carbonyl)-N-(1-(3,5-difluorobenzyl)piperidin-4-yl)picolinamide]",< 500 nM

row,Structure (SMILES),EC50
1,"COc1ccc(CN2CCC(NC(=O)c3ccc(C(=O)N4CCC(C(=O)c5ccc(F)cc5)CC4)cn3)CC2)cc1 [Compound 160, 5-(4-(4-fluorobenzoyl)piperidine-1-carbonyl)-N-(1-(4-methoxybenzyl)piperidin-4-yl)picolinamide]",< 500 nM
2,"N#Cc1ccc(CN2CCC(NC(=O)c3ccc(Nc4ccc(-c5ccccc5)cc4)cn3)CC2)cc1 [Compound 109, 5-(biphenyl-4-ylamino)-N-(1-(4-cyanobenzyl)piperidin-4-yl)picolinamide]",5000 to 10000 nM
3,"N#Cc1ccc(OC2CCN(C(=O)c3ccc(C(=O)N[C@H]4CC[C@@H](Oc5ccc(F)cc5)CC4)nc3)CC2)cc1 [Compound 303, 5-(4-(4-cyanophenoxy)piperidine-1-carbonyl)-N-((cis)-4-(4-fluorophenoxy)cyclohexyl)picolinamide]",< 500 nM
4,"N#Cc1ccc(Oc2ccc(NC(=O)c3ccc(C(=O)N4CCC(S(=O)(=O)c5ccc(F)cc5)CC4)nc3)cn2)cc1 [Compound 472, N-(6-(4-cyanophenoxy)pyridin-3-yl)-6-(4-(4-fluorophenylsulfonyl)piperidine-1-carbonyl)nicotinamide]",1000 to 5000 nM
5,"COc1cccc(CN2CCC(NC(=O)c3ccc(C(=O)N4CCC(S(=O)(=O)c5ccc(F)cc5)CC4)nc3)CC2)c1 [Compound 475, 6-(4-(4-fluorophenylsulfonyl)piperidine-1-carbonyl)-N-(1-(3-methoxybenzyl)piperidin-4-yl)nicotinamide]",1000 to 5000 nM
6,"COc1ccc(N2CCC(NC(=O)c3ccc(C(=O)N4CCN(Cc5ccc(F)cc5)CC4)nc3)CC2)cc1 [Compound 405, 6-(4-(4-fluorobenzyl)piperazine-1-carbonyl)-N-(1-(4-methoxyphenyl)piperidin-4-yl) nicotinamide]",< 500 nM
7,"COc1ccc(C(=O)C2CCN(C(=O)c3ccc(C(=O)NC4CCN(Cc5ccc(S(C)(=O)=O)cc5)CC4)cn3)CC2)cc1 [Compound 215, 6-(4-(4-methoxybenzoyl)piperidine-1-carbonyl)-N-(1-(4-(methylsulfonyl)benzyl)piperidin-4-yl)nicotinamide]",> 10000 nM
8,"O=C(Nc1ccc(-c2cccnc2)cc1)c1ccc(C(=O)N2CCN(Cc3ccc(F)cc3)CC2)cn1 [Compound 61, 5-(4-(4-fluorobenzyl)piperazine-1-carbonyl)-N-(4-(pyridine-3-yl)phenyl)picolinamide]",< 500 nM
9,"CS(=O)(=O)c1ccc(CN2CCC(NC(=O)c3ccc(C(=O)N4CCC(Oc5ccc(C#N)cc5)CC4)nc3)CC2)cc1 [Compound 214, 6-(4-(4-cyanophenoxy)piperidine-1-carbonyl)-N-(1-(4-(methylsulfonyl)benzyl)piperidin-4-yl)nicotinamide]",> 10000 nM
10,"COc1ccc(C(=O)C2CCN(C(=O)c3ccc(C(=O)N[C@@H]4CCN(Cc5ccc(C#N)cc5)C[C@H]4F)cn3)CC2)cc1 (relative stereo) [Compound 349, N-((trans)-1-(4-cyanobenzyl)-3-fluoropiperidin-4-yl)-6-(4-(4-methoxybenzoyl)piperidine-1-carbonyl)nicotinamide]",< 500 nM
11,"O=C(Nc1ccc(Oc2ccc(F)cc2)nc1)c1ccc(C(=O)N2CCC(Oc3ccc(F)cc3)CC2)cn1 [Compound 273, 5-(4-(4-fluorophenoxy)piperidine-1-carbonyl)-N-(6-(4-fluorophenoxy)pyridin-3-yl)picolinamide]",< 500 nM
12,"CN(C)c1ccc(OC2CCN(C(=O)c3ccc(C(=O)NC4CCN(Cc5ccc(C#N)cc5)CC4)cn3)CC2)cc1 [Compound 370, N-(1-(4-cyanobenzyl)piperidin-4-yl)-6-(4-(4-(dimethylamino)phenoxy)piperidine-1-carbonyl)nicotinamide]",< 500 nM
13,"CN1CCN(c2ccc(NC(=O)c3ccc(C(=O)N4CCN(Cc5ccc(F)cc5)CC4)cn3)cc2)CC1 [Compound 41, 5-(4-(4-fluorobenzyl)piperazine-1-carbonyl)-N-(4-(4-methylpiperazin-1-yl)phenyl)picolinamide]",> 10000 nM
14,"CS(=O)(=O)c1ccc(C(=O)C2CCN(C(=O)c3ccc(C(=O)NC4CCN(Cc5ccc(C#N)cc5)CC4)cn3)CC2)cc1 [Compound 221, N-(1-(4-cyanobenzyl)piperidin-4-yl)-6-(4-(4-(methylsulfonyl)benzoyl)piperidine-1-carbonyl)nicotinamide]",1000 to 5000 nM
15,"N#Cc1ccc(O[C@H]2CC[C@H](NC(=O)c3ccc(C(=O)N4CCC(C(=O)c5ccc(F)cc5)CC4)cn3)CC2)cc1 [Compound 168, N-((trans)-4-(4-cyanophenoxy)cyclohexyl)-5-(4-(4-fluorobenzoyl)piperidine-1-carbonyl)picolinamide]",< 500 nM
16,"N#Cc1ccc(CN2CCC(NC(=O)c3ccc(N4CCC(Oc5ccc(C#N)cc5)CC4)cn3)CC2)cc1 [Compound 165, N-(1-(4-cyanobenzyl)piperidin-4-yl)-5-(4-(4-cyanophenoxy)piperidin-1-yl)picolinamide]",< 500 nM
